Experimental data taken from patent US8338565B2, “Macrocyclic compounds for inhibition of tumor necrosis factor alpha” (Ensemble Therapeutics Corporation, priority 2008, dated 2012).
Numbered stars: 1 amine (or outer) side, 2 acyl side, 3 side chain; on linkers, the order of the positions; unused ones are H or OH. Bridge positions count the residues as written; N and C are the ends. Square brackets hold non-standard residues; d marks the D form. Peptide text beside a SMILES is read from it. Phe(4-CF3) = N[C@@H](Cc1ccc(C(F)(F)F)cc1)C(=O)O; Phe(2,4-Cl2) = N[C@@H](Cc1ccc(Cl)cc1Cl)C(=O)O; Bip = N[C@@H](Cc1ccc(-c2ccccc2)cc1)C(=O)O; dPhe(4-NH2) = Nc1ccc(C[C@@H](N)C(=O)O)cc1; Phe(4-NH2) = Nc1ccc(C[C@H](N)C(=O)O)cc1; dPhe(4-F) = N[C@H](Cc1ccc(F)cc1)C(=O)O; Lys(Me2) = CN(C)CCCC[C@H](N)C(=O)O; d(hPhe) = N[C@H](CCc1ccccc1)C(=O)O; d4Pal = N[C@H](Cc1ccncc1)C(=O)O; d2Thi = N[C@H](Cc1cccs1)C(=O)O; Suc = O=C(CCC(=O)[*:2])[*:1]; Aib = CC(C)(N)C(=O)O

What follows are compounds tested against T1, TNFα / TNFα receptor (TNFα R1/Fc) (Homo sapiens, UniProt P01375) (assay: Inhibition of binding of TNFα to the TNFα receptor (plate ELISA competition)). Conditions: Activity (IC50, inhibition of TNFα binding to TNFα R1/Fc), Table 2.
T1 construct: purchased R&D Systems
In short: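 Plates were coated with TNFα at 15 nM. Test compound and 8.33 nM receptor-Fc (PBST, 2% DMSO) were first mixed in solution for 30 min at room temperature, then transferred to the plates for another 30 min. Competition was read by absorbance at 450 nm after HRP anti-human IgG Fc detection with TMB.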

T1 sequence (P01375 77-233 limits assumed, species assumed): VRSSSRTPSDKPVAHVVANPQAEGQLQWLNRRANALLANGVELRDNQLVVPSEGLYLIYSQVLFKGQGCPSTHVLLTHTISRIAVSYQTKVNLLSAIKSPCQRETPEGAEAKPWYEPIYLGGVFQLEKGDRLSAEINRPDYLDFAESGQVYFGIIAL

Row | Compound | IC50 [µM]
1 | O=C1COc2ccc(cc2)C[C@@H](C(=O)NCCO)NC(=O)[C@H](Cc2ccccc2)NC(=O)[C@H](Cc2ccc(-c3ccccc3)cc2)NC(=O)[C@H](Cc2cccs2)N1 [Compound 338] | 10 to 30

Same assay, conditions: Table 2; read-out: Activity (IC50, inhibition of TNFα binding to TNFα R1/Fc)

Row | Compound | IC50 [µM]
2 | O=C(O)CC[C@H](NC(=O)[C@@H]1Cc2ccc(cc2)OCC(=O)N[C@H](Cc2cccs2)C(=O)N[C@@H](Cc2ccc(-c3ccccc3)cc2)C(=O)N[C@H](CCc2ccccc2)C(=O)N1)C(=O)O [Compound 308] | > 100
3 | O=C1CCC(=O)N[C@H](Cc2ccc(F)cc2)C(=O)N[C@@H](Cc2ccc(C(F)(F)F)cc2)C(=O)N[C@H](Cc2ccccc2)C(=O)N[C@H](C(=O)O)Cc2ccc(cc2)N1 [Compound 134] ([dPhe(4-F)][Phe(4-CF3)][dF][Phe(4-NH2)]-OH; linker N-4 via Suc) | > 100
4 | O=C1N[C@@H](C(=O)O)Cc2ccc(cc2)NC(=O)[C@H](O)[C@@H](O)C(=O)N[C@H](Cc2cccs2)C(=O)N[C@H](Cc2ccc(-c3ccccc3)cc2)C(=O)N[C@H]1Cc1ccccc1 [Compound 281] | > 100
5 | CC(C)C[C@@H]1NC(=O)[C@H](Cc2ccc(-c3ccccc3)cc2)NC(=O)[C@@H](Cc2cccs2)NC(=O)CCC(=O)Nc2ccc(cc2)C[C@@H](C(=O)O)NC1=O [Compound 54] ([d2Thi][Bip]L[Phe(4-NH2)]-OH; linker N-4 via Suc) | > 100
6 | O=C1COc2ccc(cc2)C[C@@H](C(=O)O)NC(=O)[C@@H](CCc2ccccc2)NC(=O)[C@H](Cc2ccc([N+](=O)[O-])cc2)NC(=O)[C@@H](Cc2cccs2)N1 [Compound 541] | > 100
7 | O=C1COc2ccc(cc2)C[C@@H](C(=O)O)NC(=O)[C@H](Cc2ccccc2)NC(=O)[C@H](Cc2ccc(-c3ccccc3)cc2)NC(=O)[C@H](Cc2ccc(OCc3ccccc3)cc2)N1 [Compound 491] | > 100
8 | O=C1CCC(=O)N[C@H](Cc2cccs2)C(=O)N[C@H](c2ccc(Br)cc2)CC(=O)N[C@H](Cc2ccccc2)C(=O)N[C@H](C(=O)O)Cc2ccc(cc2)N1 [Compound 107] | > 100
9 | CN(C)CCCC[C@@H]1NC(=O)[C@@H](Cc2cccs2)NC(=O)CCC(=O)Nc2ccc(cc2)C[C@@H](C(=O)O)NC(=O)[C@@H](Cc2ccccc2)NC1=O [Compound 203] ([d2Thi][Lys(Me2)][dF][Phe(4-NH2)]-OH; linker N-4 via Suc) | > 100
10 | O=C1CCC(=O)N[C@H](Cc2cccs2)C(=O)N[C@@H](Cc2ccc(-c3ccccc3)cc2)C(=O)N[C@H](Cc2ccncc2)C(=O)N[C@H](C(=O)O)Cc2ccc(cc2)N1 [Compound 50] ([d2Thi][Bip][d4Pal][Phe(4-NH2)]-OH; linker N-4 via Suc) | > 100
11 | O=C1CCC(=O)N[C@H](CCc2ccccc2)C(=O)N[C@@H](Cc2ccc(-c3cccc(Cl)c3)cc2)C(=O)N[C@H](Cc2ccccc2)C(=O)N[C@H](C(=O)O)Cc2ccc(cc2)N1 [Compound 171] | > 100
12 | O=C(O)CC[C@H]1NC(=O)[C@H](Cc2ccc(-c3ccccc3)cc2)NC(=O)[C@@H](Cc2cccs2)NC(=O)CCC(=O)Nc2ccc(cc2)C[C@@H](C(=O)O)NC1=O [Compound 69] ([d2Thi][Bip][dE][Phe(4-NH2)]-OH; linker N-4 via Suc) | > 100
13 | O=C(O)[C@@H]1Cc2ccc(cc2)NC(=O)[C@H](O)[C@@H](O)C(=O)N[C@@H](Cc2cccs2)C(=O)N[C@@H](Cc2ccc(-c3ccccc3)cc2)C(=O)N[C@H](Cc2ccccc2)C(=O)N1 [Compound 270] | > 100
14 | O=C1COc2ccc(cc2)C[C@@H](C(=O)O)NC(=O)[C@@H](CCc2ccccc2)NC(=O)[C@H](Cc2ccc(Br)cc2)NC(=O)[C@@H](Cc2cccs2)N1 [Compound 539] | > 100
15 | O=C1CCC(=O)N[C@H](CCc2ccccc2)C(=O)N[C@@H](Cc2ccc(-n3cccn3)cc2)C(=O)N[C@H](Cc2ccccc2)C(=O)N[C@H](C(=O)O)Cc2ccc(cc2)N1 [Compound 115] | > 100
16 | CC(C)(NC(=O)[C@H]1Cc2ccc(cc2)NC(=O)CCC(=O)N[C@H](CCc2ccccc2)C(=O)N[C@@H](Cc2ccc(C(F)(F)F)cc2)C(=O)N[C@H](Cc2ccccc2)C(=O)N1)C(=O)O [Compound 14] ([d(hPhe)][Phe(4-CF3)][dF][dPhe(4-NH2)][Aib]-OH; linker N-4 via Suc) | 30 to 100
17 | O=C1N[C@H](Cc2ccccc2)C(=O)N[C@@H](C(=O)O)Cc2ccc(cc2)NC(=O)[C@H](O)[C@@H](O)C(=O)N[C@H](Cc2ccccc2)C(=O)N[C@H]1Cc1ccc(-c2ccccc2)cc1 [Compound 241] | 30 to 100

The remaining lines, values ahead:

Row | IC50 [µM] | Compound
18 | 10 to 30 | COc1ccc(C[C@@H]2NC(=O)[C@@H](Cc3ccc(-c4ccccc4)cc3)NC(=O)[C@H](Cc3cccs3)NC(=O)COc3ccc(cc3)C[C@@H](C(=O)O)NC2=O)cc1 [Compound 630]
19 | 10 to 30 | CS(=O)(=O)NC(=O)[C@@H]1Cc2ccc(cc2)OCC(=O)N[C@@H](Cc2ccncc2)C(=O)N[C@H](Cc2ccc(-c3ccccc3)cc2)C(=O)N[C@@H](CCc2ccccc2)C(=O)N1 [Compound 600]
20 | < 10 | O=C1COc2ccc(cc2)C[C@@H](C(=O)N[C@H](CCc2ccccc2)C(=O)O)NC(=O)[C@H](Cc2c[nH]c3ccccc23)NC(=O)[C@@H](Cc2ccc(-c3ccccc3)cc2)NC(=O)[C@H](Cc2c[nH]c3ccccc23)N1 [Compound 744]
21 | < 10 | O=C1COc2ccc(cc2)C[C@@H](C(=O)O)NC(=O)[C@@H](CCc2ccccc2)NC(=O)[C@H](Cc2ccc(-c3ccccc3)cc2)NC(=O)[C@@H](Cc2ccc(-c3ccncc3)cc2)N1 [Compound 518]
22 | 10 to 30 | O=C1CCC(=O)N[C@H](CCc2ccccc2)C(=O)N[C@@H](Cc2ccc(Cl)cc2Cl)C(=O)N[C@H](Cc2ccccc2)C(=O)N[C@@H](C(=O)N[C@@H](Cc2ccccc2)C(=O)O)Cc2ccc(cc2)N1 [Compound 441] ([d(hPhe)][Phe(2,4-Cl2)][dF][dPhe(4-NH2)]F-OH; linker N-4 via Suc)
23 | < 10 | O=C1COc2ccc(cc2)C[C@@H](C(=O)N[C@H](CO)C(=O)O)NC(=O)[C@H](CCc2ccccc2)NC(=O)[C@@H](Cc2ccc(-c3ccccc3)cc2)NC(=O)[C@H](Cc2ccc(-c3ccncc3)cc2)N1 [Compound 584]
24 | < 10 | O=C1COc2ccc(cc2)C[C@@H](C(=O)O)NC(=O)[C@H](CCc2ccccc2)NC(=O)[C@@H](Cc2ccc(-c3ccccc3)cc2)NC(=O)[C@H](Cc2ccc(F)cc2)N1 [Compound 679]
25 | < 10 | O=C1COc2ccc(cc2)C[C@@H](C(=O)O)NC(=O)[C@H](CCc2ccccc2)NC(=O)[C@@H](Cc2ccc(-c3ccccc3)cc2)NC(=O)[C@H](Cc2ccc(Cl)cc2Cl)N1 [Compound 697]
26 | 10 to 30 | O=C1COc2ccc(cc2)C[C@@H](C(=O)O)NC(=O)[C@@H](CCc2ccccc2)NC(=O)[C@H](Cc2ccc(-c3ccccc3)cc2)NC(=O)[C@@H](CCc2ccccc2)N1 [Compound 144]
27 | < 10 | CC(C)(NC(=O)[C@@H]1Cc2ccc(cc2)NC(=O)CCC(=O)N[C@H](Cc2cccs2)C(=O)N[C@@H](Cc2ccc(-c3ccccc3)cc2)C(=O)N[C@H](Cc2ccccc2)C(=O)N1)C(=O)O [Compound 25] ([d2Thi][Bip][dF][Phe(4-NH2)][Aib]-OH; linker N-4 via Suc)
28 | < 10 | O=C1COc2ccc(cc2)C[C@@H](C(=O)O)NC(=O)[C@H](CCc2ccccc2)NC(=O)[C@@H](Cc2ccc(-c3ccccc3)cc2)NC(=O)[C@H](CCc2ccccc2)N1 [Compound 513]
29 | < 10 | O=C1CCCCc2cn(nn2)C[C@@H](C(=O)O)NC(=O)[C@@H](CCc2ccccc2)NC(=O)[C@H](Cc2ccc(-c3ccccc3)cc2)NC(=O)[C@@H](Cc2cccs2)N1 [Compound 544]
30 | 10 to 30 | O=C1COc2ccc(cc2)C[C@@H](C(=O)O)NC(=O)[C@H](CCc2ccccc2)NC(=O)[C@@H](Cc2ccc(-c3cccnc3)cc2)NC(=O)[C@H](Cc2ccncc2)N1 [Compound 665]
31 | < 10 | O=C1COc2ccc(cc2)C[C@@H](C(=O)N[C@@H](Cc2ccccc2)C(=O)O)NC(=O)[C@H](CCc2ccccc2)NC(=O)[C@@H](Cc2ccc(-c3ccccc3)cc2)NC(=O)[C@H](Cc2ccc(-c3ccncc3)cc2)N1 [Compound 581]
32 | 30 to 100 | COc1ccc(-c2ccc(C[C@@H]3NC(=O)[C@@H](CCc4ccccc4)NC(=O)CCC(=O)Nc4ccc(cc4)C[C@@H](C(=O)O)NC(=O)[C@@H](Cc4ccccc4)NC3=O)cc2)cc1 [Compound 168]
33 | < 10 | O=C1COc2ccc(cc2)C[C@@H](C(=O)O)NC(=O)[C@@H](CCc2ccccc2)NC(=O)C(c2ccc(Br)cc2)NC(=O)[C@@H](Cc2cccs2)N1 (stereo partly drawn) [Compound 525]
34 | < 10 | O=C(O)CCNC(=O)[C@@H]1Cc2ccc(cc2)OCC(=O)N[C@@H](Cc2ccc(-c3ccncc3)cc2)C(=O)N[C@H](Cc2ccc(-c3ccccc3)cc2)C(=O)N[C@@H](CCc2ccccc2)C(=O)N1 [Compound 579]
35 | < 10 | O=C1COc2ccc(cc2)C[C@@H](C(=O)N[C@H](CO)C(=O)O)NC(=O)[C@H](CCc2ccccc2)NC(=O)[C@@H](Cc2ccc(-c3ccccc3)cc2)NC(=O)[C@H](Cc2ccc(-c3ccccc3)cc2)N1 [Compound 571]
36 | < 10 | O=C(O)CCCNC(=O)[C@H]1Cc2ccc(cc2)OCC(=O)N[C@@H](Cc2c[nH]c3ccccc23)C(=O)N[C@H](Cc2ccc(-c3ccccc3)cc2)C(=O)N[C@@H](Cc2ccccc2F)C(=O)N1 [compound 713]
37 | 30 to 100 | O=C1CCC(=O)N[C@H](Cc2cccs2)C(=O)N[C@@H](Cc2ccc(-c3ccccc3)cc2)C(=O)N[C@H](Cc2cccs2)C(=O)N[C@H](C(=O)O)Cc2ccc(cc2)N1 [Compound 74] ([d2Thi][Bip][d2Thi][Phe(4-NH2)]-OH; linker N-4 via Suc)
38 | < 10 | O=C(O)CCCNC(=O)[C@@H]1Cc2ccc(cc2)OCC(=O)N[C@@H](Cc2ccncc2)C(=O)N[C@H](Cc2ccc(-c3ccccc3)cc2)C(=O)N[C@@H](Cc2c[nH]c3ccccc23)C(=O)N1 [Compound 722]
39 | 30 to 100 | N#Cc1ccccc1C[C@H]1NC(=O)[C@H](Cc2ccc(-c3ccccc3)cc2)NC(=O)[C@@H](Cc2cccs2)NC(=O)[C@H](O)[C@@H](O)C(=O)Nc2ccc(cc2)C[C@@H](C(=O)O)NC1=O [Compound 285]
